Data taken from ChEMBL document CHEMBL5214992, “Potent Uncompetitive Inhibitors of Nicotinamide N-Methyltransferase (NNMT) as In Vivo Chemical Probes” (J Med Chem, 2022).

Experiments:
[1] = biological target: T1, Nicotinamide N-methyltransferase (Homo sapiens, UniProt P40261)
T1 sequence (P40261 whole entry): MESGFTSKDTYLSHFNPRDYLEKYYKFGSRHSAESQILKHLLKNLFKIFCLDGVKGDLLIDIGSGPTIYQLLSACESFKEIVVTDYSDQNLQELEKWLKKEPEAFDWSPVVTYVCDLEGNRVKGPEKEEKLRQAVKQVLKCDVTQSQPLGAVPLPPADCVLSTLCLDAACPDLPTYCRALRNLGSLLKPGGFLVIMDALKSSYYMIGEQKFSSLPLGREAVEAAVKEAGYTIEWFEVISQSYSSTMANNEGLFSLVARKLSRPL
Description: Inhibition of human NNMT measured after 20 mins by luminescence based methyltransferase assay

[2] = Microsomal stability in human liver microsomes assessed as compound remaining after 60 mins by LC-MS/MS analysis; type: ADME, Microsome; conditions: for remaining at 1 h: liver microsomes, read-out: Stability
[3] = Tmax in C57BL6/N mouse at 50 mg/kg, po measured upto 24 hrs by LC-MS/MS analysis; type: ADME, organism-based; conditions: in vivo
[4] = Half life in C57BL6/N mouse at 50 mg/kg, po measured upto 24 hrs by LC-MS/MS analysis; type: ADME, organism-based; conditions: in vivo
[5] = Clearance in C57BL6/N mouse at 1 mg/kg, iv measured upto 24 hrs by LC-MS/MS analysis; type: ADME, organism-based; conditions: in vivo
[6] = Cmax in C57BL6/N mouse at 50 mg/kg, po measured upto 24 hrs by LC-MS/MS analysis; type: ADME, organism-based; design: dose 50 mg/kg, time < 24 hrs, route po; conditions: in vivo
[7] = Oral bioavailability in C57BL6/N mouse at 50 mg/kg measured upto 24 hrs by LC-MS/MS analysis; type: ADME, organism-based; conditions: in vivo; for bioavailability: C57BL6/N
[8] = AUClast in C57BL6/N mouse at 50 mg/kg, po measured upto 24 hrs by LC-MS/MS analysis; type: ADME, organism-based; design: time < 24 hrs, dose 50 mg/kg, route po; conditions: in vivo; for AUC(0-t) at 24 h: C57BL6/N
[9] = biological target: T1, Nicotinamide N-methyltransferase; assay: Inhibition of human NNMT in human K562 cells measured after 24 hrs by quantitative mass spectrometry; type: cell-based
[10] = Half life in C57BL6/N mouse at 10 mg/kg, po measured upto 24 hrs by LC-MS/MS analysis; type: ADME, organism-based; conditions: in vivo
[11] = Microsomal stability in mouse liver microsomes assessed as compound remaining after 60 mins by LC-MS/MS analysis; type: ADME, Microsome; conditions: for remaining at 1 h: liver microsomes, read-out: Stability; for Stability: microsomes, 1 h
[12] = Dissociation constant, pKa of the compound; type: physicochemical
P-gp = P-gp (Homo sapiens, UniProt P08183); assay: Substrate activity at P-gp (unknown origin) assessed as efflux ratio; conditions: not told
Sequence of P-gp (P08183 whole entry): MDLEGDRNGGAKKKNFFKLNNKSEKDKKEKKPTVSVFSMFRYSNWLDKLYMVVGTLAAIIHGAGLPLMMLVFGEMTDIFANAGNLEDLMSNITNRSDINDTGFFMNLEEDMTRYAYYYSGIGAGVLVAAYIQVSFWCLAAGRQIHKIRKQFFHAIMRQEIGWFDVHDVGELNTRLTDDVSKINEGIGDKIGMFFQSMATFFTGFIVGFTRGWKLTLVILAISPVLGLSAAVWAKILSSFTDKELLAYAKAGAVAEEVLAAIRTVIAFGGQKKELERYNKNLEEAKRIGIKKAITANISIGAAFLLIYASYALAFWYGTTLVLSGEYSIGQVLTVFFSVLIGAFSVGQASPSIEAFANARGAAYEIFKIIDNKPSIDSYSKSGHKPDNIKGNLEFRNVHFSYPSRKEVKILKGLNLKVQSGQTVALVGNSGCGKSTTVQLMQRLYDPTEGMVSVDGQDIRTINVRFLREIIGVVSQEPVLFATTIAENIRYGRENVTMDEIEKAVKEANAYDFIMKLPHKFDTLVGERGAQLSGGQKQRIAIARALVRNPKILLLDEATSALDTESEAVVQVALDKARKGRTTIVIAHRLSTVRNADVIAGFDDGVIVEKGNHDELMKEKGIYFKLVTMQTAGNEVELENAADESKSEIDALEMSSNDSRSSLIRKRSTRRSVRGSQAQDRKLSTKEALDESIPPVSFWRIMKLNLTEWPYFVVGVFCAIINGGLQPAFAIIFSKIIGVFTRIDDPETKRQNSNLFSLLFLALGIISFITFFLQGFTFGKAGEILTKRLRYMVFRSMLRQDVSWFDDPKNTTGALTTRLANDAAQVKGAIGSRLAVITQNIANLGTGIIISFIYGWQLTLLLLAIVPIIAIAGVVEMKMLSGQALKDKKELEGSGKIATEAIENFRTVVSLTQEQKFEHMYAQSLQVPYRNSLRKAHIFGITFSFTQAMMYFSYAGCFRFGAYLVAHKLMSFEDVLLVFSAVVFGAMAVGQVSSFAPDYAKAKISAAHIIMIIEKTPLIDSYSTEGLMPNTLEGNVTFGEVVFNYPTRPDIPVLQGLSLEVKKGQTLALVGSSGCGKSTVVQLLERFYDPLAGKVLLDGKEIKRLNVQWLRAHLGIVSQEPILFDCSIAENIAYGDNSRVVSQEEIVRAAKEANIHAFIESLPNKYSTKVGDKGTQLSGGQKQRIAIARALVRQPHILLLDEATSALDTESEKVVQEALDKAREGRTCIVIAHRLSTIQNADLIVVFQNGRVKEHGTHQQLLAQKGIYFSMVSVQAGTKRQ

[13] = Volume of distribution at steady state in C57BL6/N mouse; type: ADME; conditions: in vivo, read-out: Vdss
CYP450 = CYP450 (Homo sapiens, UniProt P04798+P05177+P05181+P08684+P10632+P10635+P11509+P11712+P13584+P20813+P20815+P20853+P24462+P24903+P33260+P33261+P51589+P78329+P98187+Q02928+Q08477+Q16678+Q16696+Q5TCH4+Q6VVX0+Q7Z449+Q8TAV3+Q96SQ9+Q9HB55); assay: Inhibition of CYP450 (unknown origin); type: ADME, protein assay
hERG = hERG (Homo sapiens, UniProt Q12809); assay: Inhibition of hERG; type: toxicity
Sequence of hERG (Q12809 whole entry): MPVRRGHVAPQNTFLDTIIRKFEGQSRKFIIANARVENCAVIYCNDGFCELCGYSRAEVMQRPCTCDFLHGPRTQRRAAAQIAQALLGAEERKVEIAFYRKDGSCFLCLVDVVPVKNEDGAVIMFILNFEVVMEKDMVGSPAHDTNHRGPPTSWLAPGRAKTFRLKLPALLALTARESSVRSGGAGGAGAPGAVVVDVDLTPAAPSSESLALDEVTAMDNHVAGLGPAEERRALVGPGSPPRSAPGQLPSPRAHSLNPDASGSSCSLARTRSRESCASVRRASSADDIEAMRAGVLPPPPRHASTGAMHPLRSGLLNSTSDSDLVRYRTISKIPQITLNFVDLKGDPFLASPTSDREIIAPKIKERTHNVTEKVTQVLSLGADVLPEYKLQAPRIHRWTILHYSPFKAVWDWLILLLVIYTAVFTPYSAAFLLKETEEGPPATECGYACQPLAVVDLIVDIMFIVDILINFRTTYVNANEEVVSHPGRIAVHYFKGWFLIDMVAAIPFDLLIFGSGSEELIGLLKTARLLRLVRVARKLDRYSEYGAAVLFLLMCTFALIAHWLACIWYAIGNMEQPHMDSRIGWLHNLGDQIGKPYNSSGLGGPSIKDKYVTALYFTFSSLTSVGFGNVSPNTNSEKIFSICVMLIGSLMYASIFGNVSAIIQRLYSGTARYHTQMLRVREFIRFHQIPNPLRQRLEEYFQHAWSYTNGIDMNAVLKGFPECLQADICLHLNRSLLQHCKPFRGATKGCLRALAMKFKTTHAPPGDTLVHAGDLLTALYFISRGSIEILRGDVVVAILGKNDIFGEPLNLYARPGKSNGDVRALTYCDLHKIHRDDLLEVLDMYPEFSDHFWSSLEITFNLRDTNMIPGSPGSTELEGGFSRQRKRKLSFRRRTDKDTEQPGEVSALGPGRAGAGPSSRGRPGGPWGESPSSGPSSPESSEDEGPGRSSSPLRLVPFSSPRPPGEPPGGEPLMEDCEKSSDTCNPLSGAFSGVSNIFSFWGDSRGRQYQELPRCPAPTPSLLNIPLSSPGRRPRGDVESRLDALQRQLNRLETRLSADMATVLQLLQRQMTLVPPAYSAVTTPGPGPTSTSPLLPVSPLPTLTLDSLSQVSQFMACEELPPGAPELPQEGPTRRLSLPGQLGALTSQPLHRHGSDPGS

[14] = Toxicity in C57BL6/N mouse assessed as adverse effect at 50 to 100 mg/kg, po qd measured after 2 weeks; type: organism-based; conditions: in vivo, 336 h, dose 50-100 mg/kg
[15] = Plasma protein binding in mouse; type: ADME, cell-free; conditions: read-out: PPB
[16] = Plasma protein binding in human; type: ADME, cell-free; conditions: read-out: PPB
[17] = Mutagenicity in Salmonella typhimurium by Ames test; type: toxicity; conditions: salmonella enterica subsp. enterica serovar typhimurium
[18] = Aqueous solubility of compound at pH 7.4; type: physicochemical; conditions: aqueous medium
[19] = substrate: C[C@@H]1Cc2cc(C(N)=O)cnc2N1; conditions: Homo sapiens
Description: Uncompetitive inhibition of human NNMT assessed as Km of SAM

[20] = substrate: C[C@@H]1Cc2cc(C(N)=O)cnc2N1; conditions: Homo sapiens; remark: listed apart in the source
Description: Uncompetitive inhibition of human NNMT assessed as Km of nicotinamide

`NC(=O)c1cnc2[nH]ncc2c1` showed an IC50 [1] greater than 10 µM.

For `CNc1ncc(C(N)=O)s1`, the IC50 [1] was greater than 10 µM.

In the case of `CNc1cc(OC)c(C(N)=O)cn1`, the IC50 [1] is reported as greater than 10 µM.

`CNc1cc(C)c(C(N)=S)cn1` showed an IC50 [1] greater than 10 µM.

For `C[C@H]1Cc2cc(C(N)=O)cnc2N1`, the IC50 [1] was greater than 10 µM.

With `CNc1ncc(C(N)=O)cn1` the IC50 [1] was greater than 10 µM.

Work on `CNc1ncc(C(N)=O)c(C)n1` yielded an IC50 [1] greater than 10 µM.

In the case of `COc1ccc(C(N)=O)cn1`, the IC50 [1] is reported as 1.39 µM.

With `Cc1c(C(N)=O)cnc2c1CCN2` the remaining at 1 h [2] was 85%, the Tmax [3] was 15 min and the half-life [4] was 32.6 min. It also gave a clearance [5] of 10.9 L/h/kg, a Cmax [6] of 13.5 µg/mL and an F ([7]; po, 50 mg/kg, 24 h) of 191%. The AUC(0-t) at 24 h [8] was 9.22 µg·h/mL, the IC50 [9] was 0.023 µM and the half-life [10] was 22.2 min. It also gave a remaining at 1 h [11] of 47% and an IC50 [1] of 0.102 µM.

Molecule `COc1ccccn1` has a pKa [12] of 3.28.

`CNc1ncc(C(N)=O)c(C)c1C` showed an IC50 [1] greater than 10 µM.

For `C[C@@H]1Cc2c(ncc(C(N)=O)c2Cl)N1`, the IC50 [1] was 0.048 µM.

In the case of `CNc1cc(C)c(C(N)=O)cn1`, the remaining at 1 h [2] is reported as 95%, the half-life [4] is reported as 107 min and the clearance [5] is reported as 3.77 L/h/kg. The Cmax [6] was 38.9 µg/mL, the AUC(0-t) at 24 h [8] was 30.7 µg·h/mL and the IC50 [9] was 0.025 µM. It also gave a half-life [10] of 66.6 min, a remaining at 1 h [11] of 85% and an IC50 [1] of 0.282 µM.

In the case of `CNc1cc(C(F)(F)F)c(C(N)=O)cn1`, the IC50 [1] is reported as greater than 10 µM.

For `NC(=O)c1cnc2c(c1)CCN2`, the remaining at 1 h [2] was 100%, the Tmax [3] was 15 min and the half-life [4] was 87.6 min. For the same molecule, the clearance [5] was 3.85 L/h/kg, the Cmax [6] was 28.7 µg/mL and the AUC(0-t) at 24 h [8] was 29 µg·h/mL. It also gave an IC50 [9] of 0.142 µM, a half-life [10] of 23.4 min and a remaining at 1 h [11] of 89%. The IC50 [1] was 0.175 µM.

Molecule `NC(=O)c1cnc2c(c1Cl)CCN2` has a remaining at 1 h [2] of 57%, a Tmax [3] of 15 min and a half-life [4] of 172 min. It also gave a clearance [5] of 10.7 L/h/kg, a Cmax [6] of 5.58 µg/mL and a bioavailability [7] of 90%. It also gave an AUC(0-t) at 24 h [8] of 4.33 µg·h/mL, an IC50 [9] of 0.079 µM and a half-life [10] of 27 min. The remaining at 1 h [11] was 40% and the IC50 [1] was 0.092 µM.

Work on `Cc1c(C(N)=O)c[n+]([O-])c2c1CCN2` yielded an IC50 [1] of 7.05 µM.

With `C[C@@H]1Nc2ncc(C(N)=O)cc2[C@H]1C` the IC50 [1] was greater than 10 µM.

For `NC(=O)c1cnc2c(c1)CCCN2`, the IC50 [1] was 0.74 µM.

In the case of `C[C@H]1Nc2ncc(C(N)=O)cc2[C@@H]1C`, the Stability ([2]; microsomes, 1 h) is reported as “Unstable”, the IC50 [9] is reported as 0.114 µM and the Stability [11] is reported as “Unstable”.

`C[C@@H]1Cc2cc(C(N)=O)cnc2N1` showed a remaining at 1 h [2] of 97%, an efflux ratio (P-gp) of 0.79 and a Tmax [3] of 15 min. The half-life [4] was 173 min, the Vd [13] was 0.877 L/kg and the IC50 (CYP450) was greater than 100 µM. For the same molecule, the IC50 (hERG) was greater than 30 µM, the Activity [14] was “Non-Toxic” and the Cmax [6] was 22.5 µg/mL. It also gave an AUClast ([8]; 24 h) of 5.115 µg·h/mL, an IC50 [9] of 0.038 µM and a half-life [10] of 78.5 min. The fraction unbound [15] was greater than 0.76, the fraction unbound [16] was greater than 0.62 and the remaining at 1 h [11] was 93%. For the same molecule, the Activity [17] was “Non-Toxic”, the solubility [18] was no less than 0.05 mg/mL and the IC50 [1] was 0.042 µM.

With `NC(=O)c1cnc2[nH]ccc2c1Cl` the IC50 [1] was greater than 10 µM.

For `CNc1cc(Cl)c(C(N)=O)cn1`, the IC50 [1] was 0.639 µM.

`NC(=O)c1ccc(N)nc1` [6-AMINONICOTINAMIDE] showed an IC50 [1] of 3.62 µM.

For `Cc1c(C(N)=O)cnc2c1C[C@@H](C)N2`, the remaining at 1 h [2] was 91%, the Tmax [3] was 20 min and the clearance [5] was 5.4 L/h/kg. The Cmax [6] was 11.2 µg/mL, the bioavailability [7] was 129% and the AUC(0-t) at 24 h [8] was 12.1 µg·h/mL. For the same molecule, the IC50 [9] was 0.012 µM, the Stability [11] was “Unstable” and the IC50 [1] was 0.043 µM.

`NC(=O)c1cnc2c(c1)OCCN2` gave an IC50 [1] greater than 10 µM.

With `C[C@@H]1Cc2cc(C(N)=O)c[n+](C)c2N1` the IC50 [1] was 6.24 µM.

In the case of `CCOc1cc(C)c(C(N)=O)cn1`, the IC50 [1] is reported as greater than 10 µM.

Work on `CNc1ccncc1C(N)=O` yielded an IC50 [1] greater than 10 µM.

B1: Nicotinamide N-methyltransferase (Homo sapiens), P40261 (protein)
chain: T1 sequence (P40261 whole entry)
For B1, the Km [19] was 20.2 µM and the Km [20] was 13.9 µM.
